In patent publication US10675268B2, “Somatostatin receptor subtype 4 (SSTR4) agonists” (Centrexion Therapeutics Corporation, priority 2013, dated 2020):

test: Metabolic stability in pooled human liver microsomes (half-life); format: in vitro ADME; details: 37° C., 1 μM test compound
Description: The metabolic stability of the compounds according to the invention may be investigated as follows:
The metabolic degradation of the test compound is assayed at 37° C. with pooled human liver microsomes. The final incubation volume of 100 μl per time point contains TRIS buffer pH 7.6 at room temperature (0.1 M), magnesium chloride (5 mM), microsomal protein (1 mg/mL) and the test compound at a final concentration of 1 μM. Following a short preincubation period at 37° C., the reactions are initiated by addition of beta-nicotinamide adenine dinucleotide phosphate, reduced form (NADPH, 1 mM), and terminated by transferring an aliquot into solvent after different time points. After centrifugation (10000 g, 5 min), an aliquot of the supernatant is assayed by LC-MS/MS for the amount of parent compound. The half-life is determined by the slope of the semi-logarithmic plot of the concentration-time profile.

Half-life t1/2 [h]	Structure (SMILES)
>2.17	CC(C)(NC(=O)[C@H]1[C@@H]2CNC[C@@H]21)c1n[nH]c2ccccc12 [Example 94]
>2.17	CC(C)(NC(=O)[C@H]1[C@@H]2CNC[C@@H]21)c1n[nH]c2c(C(F)(F)F)cccc12 [Example 110]

The next lines start with the compound.

Structure (SMILES)	Half-life t1/2 [h]
CCc1ccccc1OCC(C)(C)NC(=O)[C@H]1[C@@H]2CNC[C@@H]21.Cl [Example 39]	>2.17
Cc1cc(C2CC2)ccc1OCC(C)(C)NC(=O)[C@H]1[C@@H]2CNC[C@@H]21 [Example 65]	>2.17
Cc1cccc2c(C(C)(C)NC(=O)[C@H]3[C@@H]4CNC[C@@H]43)n[nH]c12 [Example 93]	>2.17
